Measurements: patent US20090192101A1, “CANCER-SPECIFIC PROMOTERS” (priority 2006, published 2009)

Key:
[1] = tested on: human normal and cancer cells; assay: Transient luciferase assay, promoter activity compared to CMV promoter; format: cell-based; conditions: electroporation, 24 hrs
Method: The activities of claudin 4 and fatty acid synthase promoters were compared to CMV promoter. […] 1×10^6 cells were transfected with 2 μg pGl3-claudin 4 luciferase vector, as well as 0.2 μg pRL-TK as internal standards by electroporation. The luciferase activity was measured after 24 hrs. The activities of claudin 4 and fatty acid synthase promoters were much weaker than that of CMV promoter, and were about 0.5% and 5% of CMV expression activity, respectively.

[2] = tested on: normal and other cancer cell lines; assay: Transient luciferase assay of promoter activity (electroporation, 24 hrs); format: cell-based, human; conditions: 2 μg vector
Method: (§1) Cells (1×10^6) were transfected with 2 μg pGl3-FASN-luciferase vector, as well as 0.2 μg pRL-TK as internal standards by electroporation. The luciferase activity was measured after 24 hrs.
(§2) In FIG. 2, the promoter activities of tight junction protein Claudin 4 in human normal and cancer cells is shown. Cells (1×10^6) were transfected with 2 μg pGl3-claudin 4 luciferase vector, as well as 0.2 μg pRL-TK as internal standards by electroporation. The luciferase activity was measured after 24 hrs.
(§3) Cells (1×10^6) were transfected with 2 μg VISA-claudin 4 or VISA-fatty acid synthase promoter vector, as well as 0.2 μg pRL-TK as internal standards by electroporation. The luciferase activity was measured after 24 hrs.
(§4) 1×10^6 cells were transfected with 2 μg pGl3-FASN-luciferase vector, as well as 0.2 μg pRL-TK as internal standards by electroporation. The luciferase activity was measured after 24 hrs. […]
(§5) Expression of claudin 4 promoter was ascertained in breast cancer cell lines, normal cell lines, and other cancer cell lines by transient luciferase assay. […] The luciferase activity was measured after 24 hrs. […]
(§6) 1×10^6 cells were transfected with 2 μg pGL3-VISA-Claudin4-Luc or pGL3-VISA-FASN-Luc plasmid, as well as 0.2 μg pRL-TK as internal standards by electroporation. The luciferase activities were measured 24 hrs after transient transfection. […]

[3] = tested on: breast cancer cell lines; assay: as above; format: cell-based, human; conditions: breast cancer cell lines such as T47D, MDA-MB-435, 2 μg vector
Method: as §1, §2, §3, §4, §5, §6

**Q.** Which “promoter activity as % of CMV expression activity” value [1] does the source give for “FASN promoter: fatty acid synthase promoter driving luciferase in pGl3 vector” here?
**A.** The value was about 5%.

**Q.** What about the “promoter expression (luciferase) in normal and other cancer cell lines” value [2] of the same substance?
**A.** The value was “low”.

**Q.** What about the “promoter activity (luciferase) in breast cancer cell lines” value [3] of the same substance?
**A.** The value was “highly expressed”.
